Laboratory results reported in article PMC4589238, “Acute Biphasic Effects of Ayahuasca” (PLoS ONE, 2015).
Like-named read-outs stand apart in the source and are kept apart here.

Columns and labels:
[1] = Plasma concentrations of ayahuasca compounds and metabolites after oral ayahuasca (LC/MS/MS); assay type: in vivo, human; set-up: AUC (mean ± sd): unit not given here; details: for Detection in plasma samples: any plasma sample after oral ayahuasca; for Cmax / Tmax: both sexes, human, in vivo; for Cmax: po
Source text: A sample of six liters of "Hoasca" was donated by the União do Vegetal (UDV) church in Brazil for the specific purpose of use in this study. Quantification of the main compounds in the brew was done with liquid chromatography-electrospray ionization-tandem mass spectrometry (LC/MS/MS). The screening included the following compounds: DMT, DMT‐N‐oxide (DMT-NO), N‐methyltryptamine (NMT), indoleacetic acid (IAA), 5‐hydroxy‐DMT (5-OH-DMT, or bufotenin), 5‐methoxy‐DMT (5-MeO-DMT), Harmine, Harmol, Harmaline, Harmalol, THH, 7‐hydroxy‐tetrahydroharmine (THH-OH), and 2‐methyl‐tetrahydro‐beta‐carboline (2-MTHBC). The original liquid volume was then reduced to 50% using a rotary evaporator to decrease the amount of liquid intake.
Blood was collected in sterile EDTA containing tubes. Ten blood samples (3 mL each) were collected every 25 minutes, starting 25 minutes before ayahuasca ingestion and ending 200 minutes after ingestion (in a total of ten samples for each individual). Blood was collected by a professional nurse, with a catheter that remained in place during the entire time of the study. Each tube was carefully and slowly turned upside-down three times and then stored at 0°C until all ten samples were collected. Blood samples were then centrifuged at 2000 rpm for 10 min at 4°C and the resulting plasma immediately collected and frozen at -80°C. The frozen plasma samples were stored at -80°C until shipped on dry ice to USA for analysis according to [31]. Compounds included in this screening were DMT, DMT-NO, NMT, IAA, 5-OH-DMT (bufotenin), 5-MeO-DMT, Harmine, Harmol, Harmaline, Harmalol, THH, THH-OH and 2-MTHBC.
Two volunteers opted out of blood collection, and data from one volunteer was discarded due to high hemolysis in the blood samples. Therefore data were available from 16 volunteers. Maximum plasma Concentration (Cmax), Time for maximum plasma concentration (Tmax) and area under the curve (AUC) of ten identified compounds are summarized in Table 2. […] No significant differences were found between men and women for any of the identified compounds in blood. […] There were no significant correlations between time to vomit and Cmax or AUC.

[2] = system: healthy volunteers; experiment: Association between plasma concentration and EEG spectral changes (generalized linear models); assay type: in vivo, human; details: for Clusters between plasma concentration and EEG spectra: delta, theta and beta frequency bands; for Cohen's d, plasma concentration vs alpha band: left frontal electrodes
Description: Relationships between plasma concentration of identified compounds and spectral changes in the six frequency bands evaluated were calculated by fitting generalized linear models (glmfit function in MATLAB) for each compound and frequency band. This analysis was followed by the non-parametric cluster based correction with 5000 permutations.
Results were considered statistically significant when p <0.05. Effect sizes are also reported, using Partial eta squared (partial η^2) for the main frequency clusters and Cohen’s d for the generalized linear models.

[3] = system: MAO-A; set-up: method as in PMID 19879939; details: cited from earlier work
[4] = system: human subjects; details: cited from earlier work
[5] = system: 5HT-2A receptors; details: cited from earlier work
[6] = plasma, 16 volunteers, oral ayahuasca, sampling to 200 min, read-out: Cmax (mean ± sd)
[7] = plasma, 16 volunteers, oral ayahuasca, read-out: Cmax (min—max)
[8] = from ayahuasca ingestion, group average curve, read-out: Time of peak plasma level in the group average (converted)
[9] = plasma, 16 volunteers, oral ayahuasca, read-out: Tmax (mean ± sd) (converted)
[10] = plasma, 16 volunteers, oral ayahuasca
[11] = left centro-parieto-occipital electrodes
[12] = left fronto-central electrodes (F7 and FC5)
[13] = left fronto-temporal electrodes
[14] = plasma, 16 volunteers, oral ayahuasca, sampling to 200 min
[15] = bilateral parieto-occipital electrodes
[16] = left parieto-occipital electrodes
[17] = one large widespread bilateral cluster
[18] = one right central electrode (C6)

Compound: CN1CCc2c([nH]c3ccccc23)C1 [2-MTHBC, 2‐methyl‐tetrahydro‐beta‐carboline]
- Detection in plasma samples [1]: never detected

Compound: COc1ccc2[nH]cc(CCN(C)C)c2c1 [5-MeO-DMT, 5‐methoxy‐DMT]
- Detection in plasma samples [1]: never detected

Compound: CN(C)CCc1c[nH]c2ccc(O)cc12 [5-OH-DMT, 5‐hydroxy‐DMT]
- Detection in plasma samples [1]: never detected

Compound: CN(C)CCc1c[nH]c2ccccc12 [DMT, N,N-dimethyltryptamine]
- Cmax [1, 6]: 0.0254 ± 0.0168 µg/mL
- Cmax [1, 7]: 0.00249 to 0.0659 µg/mL
- Tmax [1, 8]: 1.25 h
- Tmax [1, 9]: 2.21 h
- AUC (min—max) [1, 10]: 9.52 to 219.10 g·min/mL
- Cohen's d, plasma concentration vs fast-gamma power increase ([2]; bilateral temporo-parieto-occipital electrodes): 0.0309
- Cohen's d, plasma concentration vs alpha band power decrease [2, 11]: 0.0822
- Cohen's d, plasma concentration vs slow-gamma power increase [2, 11]: 0.0125
- Cohen's d, plasma concentration vs beta power increase [2, 12]: 0.1131
- Cohen's d, plasma concentration vs fast-gamma power increase [2, 13]: 0.0193
- Cohen's d, plasma concentration vs slow-gamma power increase [2, 13]: 0.0966
- Cohen's d, plasma concentration vs delta band increase ([2]; left fronto-temporal electrodes (FT9, F7 and FT7)): 0.2962
- Cohen's d, plasma concentration vs fast-gamma power increase ([2]; right frontal electrodes): 0.1366
- Cohen's d, plasma concentration vs slow-gamma power increase ([2]; right frontal electrodes): 0.0161
- Cohen's d, plasma concentration vs delta band increase ([2]; right frontal electrodes (AF4 and F2)): 0.2100

Compound: C[N+](C)([O-])CCc1c[nH]c2ccccc12 [DMT-NO, DMT‐N‐oxide]
- AUC (mean ± sd) [1, 10]: 60.37 ± 57.60
- AUC (min—max) [1, 10]: 5.21 to 191.29 g·min/mL
- Cmax (min—max) [1, 10]: 0.00158 to 0.0406 µg/mL
- Tmax (mean ± sd) [1, 10]: 1.849 ± 0.6267 h
- Cmax (mean ± sd) [1, 14]: 0.01442 ± 0.0125 µg/mL
- Clusters between plasma concentration and beta band [2]: No significant clusters
- Cohen's d, plasma concentration vs fast-gamma power increase [2, 15]: 0.0003
- Clusters between plasma concentration and delta band [2]: not significant
- Cohen's d, plasma concentration vs fast-gamma power increase ([2]; left centro-frontal electrodes): 0.1917
- Cohen's d, plasma concentration vs slow-gamma power increase ([2]; left centro-parieto-occipital extending to right parietal electrodes): 0.0593
- Cohen's d, plasma concentration vs alpha band power decrease ([2]; left centro-parieto-occipital extending to some left frontal electrodes): 0.0610
- Cohen's d, plasma concentration vs slow-gamma power increase ([2]; right centro-temporal electrodes (C6, T8 and TP8)): 0.0052
- Cohen's d, plasma concentration vs fast-gamma power increase ([2]; right centro-temporo-frontal electrodes): 0.0269
- Cohen's d, plasma concentration vs slow-gamma power increase ([2]; right frontal electrodes): 0.0061
- Cohen's d, plasma concentration vs alpha band power decrease ([2]; right fronto-temporal electrodes (FC6, FT8 and FT10)): 0.1341

Compound: CC1=NCCc2c1[nH]c1cc(O)ccc21 [Harmalol]
- Cmax [1, 6]: 0.0172 ± 0.0136 µg/mL
- Cmax [1, 7]: 0.00311 to 0.0485 µg/mL
- Tmax [1, 9]: 2.08 h
- AUC (min—max) [1, 10]: 9.91 to 204.99 g·min/mL
- Clusters between plasma concentration and EEG spectra [2]: did not show any significant clusters
- Cohen's d, plasma concentration vs alpha band power decrease ([2]; left centro-parietal electrodes): 0.0673
- Cohen's d, plasma concentration vs slow-gamma power increase [2, 12]: 0.0707
- Cohen's d, plasma concentration vs fast-gamma power increase [2, 13]: 0.1479
- Cohen's d, plasma concentration vs alpha band power decrease [2, 16]: 0.1056
- Cohen's d, plasma concentration vs slow-gamma power increase [2, 16]: 0.0542
- Cohen's d, plasma concentration vs fast-gamma power increase ([2]; right frontal electrodes): 0.0785
- Cohen's d, plasma concentration vs slow-gamma power increase ([2]; right frontal electrodes): 0.001

Compound: COc1ccc2c(c1)[nH]c1c(C)nccc12 [Harmine]
- Cmax [1, 6]: 0.11 ± 0.138 µg/mL
- Tmax [1, 8]: 0.833 h
- Tmax [1, 9]: 2.5 h
- AUC (min—max) [1, 10]: 21.37 to 2325.28 g·min/mL
- Clusters between plasma concentration and EEG spectra [2]: did not show any significant clusters
- Cohen's d, plasma concentration vs slow-gamma power increase ([2]; left centro-frontal electrodes (F7, FC5, C5 and C3)): 0.2028
- Cohen's d, plasma concentration vs alpha band power decrease [2, 11]: 0.0297
- Cohen's d, plasma concentration vs slow-gamma power increase [2, 16]: 0.1797
- Cohen's d, plasma concentration vs fast-gamma power increase [2, 17]: 0.0312
- Cohen's d, plasma concentration vs slow-gamma power increase ([2]; right frontal electrodes): 0.0024
- Cohen's d, plasma concentration vs slow-gamma power increase ([2]; right parietal electrodes): 0.1208
- Potency at inhibiting MAO-A relative to MAO-B [3]: 10,000 fold
- Effects in humans ([4]; 120 mg orally): barely-perceptible sedative effects
- Effects in humans ([4]; 10 to 20 mg/kg i.m.): effects qualitatively similar to LSD or mescaline
- Psychoactive dose ([4]; i.v.): ≥ 200 mg
- Affinity for 5HT-2A receptors [5]: moderate affinity

Compound: Cc1[nH]ccc2c1[nH]c1cc(=O)ccc12 [Harmol]
- Cmax [1, 6]: 0.085 ± 0.0936 µg/mL
- Cmax [1, 7]: < 0.319 µg/mL
- Tmax [1, 9]: 2.47 h
- AUC (min—max) [1, 10]: 0.00 to 1550.35 g·min/mL
- Clusters between plasma concentration and EEG spectra [2]: did not show any significant clusters
- Cohen's d, plasma concentration vs alpha band power decrease [2, 11]: 0.0556
- Cohen's d, plasma concentration vs alpha band [2]: 0.3029
- Cohen's d, plasma concentration vs slow-gamma power increase [2, 12]: 0.1250
- Cohen's d, plasma concentration vs slow-gamma power increase [2, 16]: 0.2921
- Cohen's d, plasma concentration vs fast-gamma power increase [2, 17]: 0.0463
- Cohen's d, plasma concentration vs slow-gamma power increase ([2]; right frontal electrodes): 0.2747
- Cohen's d, plasma concentration vs slow-gamma power increase ([2]; right parietal electrodes): 0.0941

Compound: O=C(O)Cc1c[nH]c2ccccc12 [IAA, indoleacetic acid]
- AUC (min—max) [1, 10]: 1237.81 to 7726.25 g·min/mL
- Cmax (min—max) [1, 10]: 0.06135 to 1.67457 µg/mL
- Tmax (mean ± sd) [1, 10]: 2.9167 ± 0.6632 h
- Cmax (mean ± sd) [1, 14]: 0.71772 ± 0.4545 µg/mL
- Clusters between plasma concentration and beta band [2]: No significant clusters
- Clusters between plasma concentration and delta band [2]: not significant
- Cohen's d, plasma concentration vs alpha band [2]: 0.2888
- Cohen's d, plasma concentration vs slow-gamma ([2]; right centro-frontal electrodes (F2, FCz, FC2, FC4)): 0.0052
- Cohen's d, plasma concentration vs fast-gamma power increase ([2]; right frontal electrodes): 0.0737
- Cohen's d, plasma concentration vs fast-gamma ([2]; right parietal electrodes (CP2, Pz, P2, P4)): 0.1428

Compound: CNCCc1c[nH]c2ccccc12 [NMT, N‐methyltryptamine]
- Cmax [1, 6]: 0.0031 ± 0.00212 µg/mL
- Cmax [1, 7]: 0.00057 to 0.00756 µg/mL
- Tmax [1, 9]: 2.03 h
- AUC (min—max) [1, 10]: 1.52 to 21.69 g·min/mL
- Clusters between plasma concentration and alpha band [2]: No significant clusters
- Cohen's d, plasma concentration vs slow-gamma power increase ([2]; bilateral frontal electrodes): 0.0822
- Cohen's d, plasma concentration vs fast-gamma power increase ([2]; bilateral fronto-central electrodes): 0.0290
- Cohen's d, plasma concentration vs fast-gamma power increase [2, 15]: 0.0911
- Clusters between plasma concentration and delta band [2]: not significant
- Cohen's d, plasma concentration vs beta power increase ([2]; left frontal electrodes (F7, AF7, AF3, AFz)): 0.0863
- Cohen's d, plasma concentration vs slow-gamma power increase ([2]; occipital electrodes (O1, Oz and O2)): 0.2579
- Cohen's d, plasma concentration vs slow-gamma power increase ([2]; right parietal electrodes): 0.1538

Compound: CC1NCCc2c1[nH]c1cc(O)ccc21 (centres unmarked) [THH-OH, 7‐hydroxy‐tetrahydroharmine]
- AUC (min—max) [1, 10]: 0.00 to 284.32 g·min/mL
- Cmax (min—max) [1, 10]: 0 to 0.11101 µg/mL
- Tmax (mean ± sd) [1, 10]: 1.994 ± 0.8978 h
- Cmax (mean ± sd) [1, 14]: 0.02258 ± 0.02676 µg/mL
- Clusters between plasma concentration and alpha band [2]: No significant clusters
- Cohen's d, plasma concentration vs delta band power increase ([2]; one left frontal electrode (F7)): 0.2644
- Cohen's d, plasma concentration vs delta band power increase [2, 18]: 0.0269
- Cohen's d, plasma concentration vs theta band power increase [2, 18]: 0.2630
- Clusters between plasma concentration and slow-gamma frequency band ([2]; slow-gamma band): No significant clusters
